Read-outs that look alike come from different tables or passages of the source.
Key:
[1] = Stability test (high temperature, high humidity, light, accelerated, long-term); assay type: physicochemical
Description: For tests under high temperature, high humidity and light conditions, samples were put into an open clean weighing bottle, spread into a thin layer of 5 mm or less, and 3 samples (1.1 g/sample) were weighed in parallel at each condition time point. The prepared samples were placed under each condition, and sampled for analysis at each time point.
For accelerated stability and long-term stability tests, samples were packed into a double-layer pharmaceutical low-density polyethylene bag. Each layer of the pharmaceutical low-density polyethylene bag was sealed with buckles, and then the double-layer low-density polyethylene bag was heat-sealed in an aluminum foil bag. 6 samples (1.1 g/sample) were weighed in parallel at each condition time point. The prepared samples were placed under each condition, and sampled for analysis at each time point.

[2] = Pharmacokinetic evaluation in SD rats, intravenous and intragastric (Experimental Embodiment 3); assay type: in vivo; conditions: rat, plasma; for bioavailability: intragastric administration, read-out: drug bioavailability; for Cmax: read-out: peak concentration (Cmax); for Tmax: read-out: peak time (Tmax); for Vd: read-out: apparent volume of distribution at steady state (Vdss); for half-life: read-out: elimination half-life (T1/2) (converted); for clearance: read-out: plasma clearance (Cl)
[3] = Accelerated stability test (40° C./relative humidity: 75%), Day 0
[4] = Accelerated stability test (40° C./relative humidity: 75%), Month 1
[5] = Accelerated stability test (40° C./relative humidity: 75%), Month 2
[6] = Accelerated stability test (40° C./relative humidity: 75%), Month 3
[7] = Accelerated stability test (40° C./relative humidity: 75%), Month 6
[8] = High humidity (25° C./relative humidity: 92.5%, open), Day 5
[9] = High humidity (25° C./relative humidity: 92.5%, open), Day 10
[10] = High humidity (25° C./relative humidity: 92.5%, open), Day 30
[11] = High temperature (60° C., open), Day 5
[12] = High temperature (60° C., open), Day 10
[13] = High temperature (60° C., open), Day 30
[14] = Light (Total illumination: 1.2 × 10^6 Lux · hr/NUV: 200 w · hr/m^2, open), Day 5
[15] = Light (Total illumination: 1.2 × 10^6 Lux · hr/NUV: 200 w · hr/m^2, open), Day 10
[16] = Long-term stability test (25° C./relative humidity: 60%), Day 0
[17] = Long-term stability test (25° C./relative humidity: 60%), Month 3
[18] = Long-term stability test (25° C./relative humidity: 60%), Month 6
[19] = Long-term stability test (25° C./relative humidity: 60%), Month 9
[20] = po, female SD rats, single intragastric administration, 10 mg/kg
[21] = po, female SD rats, single intragastric administration, 30 mg/kg
[22] = po, female SD rats, single intragastric administration, 100 mg/kg
[23] = po, male SD rats, single intragastric administration, 10 mg/kg
[24] = po, male SD rats, single intragastric administration, 30 mg/kg
[25] = po, male SD rats, single intragastric administration, 100 mg/kg
[26] = female SD rats, single intravenous injection of 1 mg/kg
[27] = male SD rats, single intravenous injection of 1 mg/kg

CS(=O)(=O)O.Cn1cc(-c2ccn3c(-c4cc(NS(C)(=O)=O)nc(-c5ccc(F)cc5F)c4)cnc3c2)cn1
Content [1, 3]: 97.9% | Crystal form (XRPD) [1, 3]: Crystal form A | Total impurities [1, 3]: 1.2% | Content [1, 4]: 98.0% | Crystal form (XRPD) [1, 4]: Crystal form A | Total impurities [1, 4]: 1.3% | Content [1, 5]: 97.6% | Crystal form (XRPD) [1, 5]: Crystal form A | Total impurities [1, 5]: 1.2% | Content [1, 6]: 98.0% | Crystal form (XRPD) [1, 6]: Crystal form A | Total impurities [1, 6]: 1.2% | Content [1, 7]: 98.5% | Crystal form (XRPD) [1, 7]: Crystal form A | Total impurities [1, 7]: 1.2% | Content ([1]; Day 0): 97.9% | Crystal form (XRPD) ([1]; Day 0): Crystal form A | Total impurities ([1]; Day 0): 1.2% | Content [1, 8]: 96.8% | Crystal form (XRPD) [1, 8]: Crystal form A | Total impurities [1, 8]: 1.2% | Content [1, 9]: 98.8% | Crystal form (XRPD) [1, 9]: Crystal form A | Total impurities [1, 9]: 1.2% | Content [1, 10]: 98.0% | Crystal form (XRPD) [1, 10]: Crystal form A | Total impurities [1, 10]: 1.3% | Content [1, 11]: 97.0% | Crystal form (XRPD) [1, 11]: Crystal form A | Total impurities [1, 11]: 1.3% | Content [1, 12]: 98.5% | Crystal form (XRPD) [1, 12]: Crystal form A | Total impurities [1, 12]: 1.1% | Content [1, 13]: 98.2% | Crystal form (XRPD) [1, 13]: Crystal form A | Total impurities [1, 13]: 1.2% | Content [1, 14]: 98.4% | Crystal form (XRPD) [1, 14]: Crystal form A | Total impurities [1, 14]: 1.2% | Content [1, 15]: 97.7% | Crystal form (XRPD) [1, 15]: Crystal form A | Total impurities [1, 15]: 1.1% | Content [1, 16]: 97.9% | Crystal form (XRPD) [1, 16]: Crystal form A | Total impurities [1, 16]: 1.2% | Content [1, 17]: 98.3% | Crystal form (XRPD) [1, 17]: Crystal form A | Total impurities [1, 17]: 1.2% | Content [1, 18]: 98.6% | Crystal form (XRPD) [1, 18]: Crystal form A | Total impurities [1, 18]: 1.2% | Content [1, 19]: 97.6% | Crystal form (XRPD) [1, 19]: Crystal form A | Total impurities [1, 19]: 1.2% | bioavailability ([2]; po, female SD rats, 10 mg/kg): 50.3% | AUC(0-t) [2, 20]: 24.8 µM·h | Cmax [2, 20]: 9.17 µM | Tmax [2, 20]: 40 min | AUC(0-t) [2, 21]: 65.6 µM·h | Cmax [2, 21]: 24.5 µM | Tmax [2, 21]: 60 min | AUC(0-t) [2, 22]: 125 µM·h | Cmax [2, 22]: 27.4 µM | Tmax [2, 22]: 30 min | bioavailability ([2]; po, male SD rats, 10 mg/kg): 18% | AUC(0-t) [2, 23]: 7.15 µM·h | Cmax [2, 23]: 3.78 µM | Tmax [2, 23]: 30 min | AUC(0-t) [2, 24]: 38.2 µM·h | Cmax [2, 24]: 16.7 µM | Tmax [2, 24]: 60 min | AUC(0-t) [2, 25]: 113 µM·h | Cmax [2, 25]: 19.9 µM | Tmax [2, 25]: 50 min | AUC(0-t) [2, 26]: 4.93 µM·h | Vd [2, 26]: 0.366 L/kg | half-life [2, 26]: 45.9 min | clearance [2, 26]: 7.03 mL/min/kg | AUC(0-t) [2, 27]: 3.98 µM·h | Vd [2, 27]: 0.419 L/kg | half-life [2, 27]: 40.5 min | clearance [2, 27]: 8.78 mL/min/kg

From patent US20240409534A1, “CRYSTAL FORM OF METHYLPYRAZOLE-SUBSTITUTED PYRIDOIMIDAZOLE COMPOUND AND PREPARATION METHOD THEREFOR” (priority 2021, published 2024)
